Reference: patent US20060222636A1, “Compositions, methods and kits relating to reprogramming adult differentiated cells and production of embryonic stem cell-like cells” (The Rockefeller University, priority 2003, published 2006)
Where two headings read alike, the source gives them in different places.

Tests used:
[1] = system: human Schwann cells; experiment: Apoptosis markers (TUNNEL assays, immunoblot of Caspase-3, Caspase-9, PARP); type: cell-based; conditions: Camptothecin (1.5 μM)-treated Schwann cells, within 48 hours, positive control
Protocol: Total protein extracts were prepared from M. leprae infected and non-infected human Schwann cells in cell lysis and nuclear extraction buffer containing 62 mM Tris-HCl pH 6.8, 2% SDS, 10% Glycerol, 50 mM DTT and 0.2% protease inhibitors cocktail (Sigma, St. Louis, Mo.). Lysates were cleared by centrifugation and the protein content was determined according to the BCA method per manufacturer's instructions (PIERCE Chemical, Rockford Ill.). 40 μg of total cellular extracts were separated by sodium dodecyl sulfate-polyacrylamide gel electrophoresis (SDS-PAGE) and transferred to nitrocellulose membranes (Schleicher & Schuell, Keene, N.H.). Bound antibodies were detected using species-specific secondary antibodies coupled to HRP (Cell Signaling Technology, Beverly, Mass.) followed by enhanced chemiluminescence development (PIERCE Chemical, Rockford Ill.).
Total protein extracts were prepared by harvesting M. leprae infected human Schwann cells in cell lysis buffer and non-infected human Schwann cells in nuclear extracting buffer. Lysates were cleared by centrifugation and the protein content was determined according to the BCA method (PIERCE Chemical, Rockford Ill.). […] Protein expression intensity was normalized to β-actin expression and quantified with a densitometer (Alpha Innotech Corporation, San Leandro, Calif.) using the Alpha Imager 2200 v.5.5 software. […]

[2] = system: Erk1/2 and GSK-3β phosphorylation; type: cell-based, human; conditions: for phosphorylation of Erk1/2 and GSK-3β in infected Schwann cells in presence of inhibitor: synchronized, continuous presence of inhibitor (15 μM); for M. leprae-induced Erk1/2 phosphorylation in presence of PKC inhibitor: 20 nM, serum starved 48 hours
Protocol: The cDNA produced was subsequently PCR amplified for 30 cycles using the various specific primers and fluorescent probes in a 384-well GeneAmp PCR system 9700 (Applied Biosystems, Foster City, Calif.). The level of each target gene was normalized to GAPDH gene as an endogenous reference. The data obtained were analyzed with the ABI PRISM 7900 HT Sequence detection system (Bulletin No. 2, Applied Biosystems). For control reactions the same master mixes were used but excluding the template RNA. Synchronization of Primary Schwann Cell and Kinase Inhibition Schwann cells that had been cultured for 30 days were synchronized for 48 hours by removing growth factor and serum. Schwann cells were then released to progress through the cell cycle by addition of 10% serum to the culture. Cytoplasmic and nuclear extracts obtained from these synchronized cells were prepared before (time 0) and after addition of serum at various time points (i.e., 9 to 18 hours after release). For Erk1/2 and pI3-k inhibition, pre-evaluated concentrations of specific MEK1/2 inhibitor UO126 (15 μM) and PD098059 (15 μM), pI3-k inhibitor LY294002 (15 μM) (Cell Signaling Technology) and SOS inhibitor (10 μg) (Upstate Biotechnology, Lake Placid, N.Y.) were added to the culture medium during synchronization and serum release, and cytoplasmic and nuclear extracts were prepared as described above and the proteins were immunoblotted using antibodies to phospho-Erk1/2, phospho-Akt, phosphoGSK-3β and cyclin-D1. For SOS inhibition studies, cell permeable SOS inhibitory peptide was added and the cells were treated as described above to analyze the effect of SOS inhibitor on M. leprae-induced activation of the above-referenced signaling molecules. None of the inhibitors examined produced any detectable apoptosis or non-apoptotic Schwann cell death under these conditions.
(§1) Human Schwann cells that had been cultured for 30 days with and without M. leprae were synchronized for 48 hours and then released to re-enter the cell cycle by addition of 10% serum. Cytoplasmic and nuclear extracts of these synchronized cells were prepared before and after addition of serum at different time points (9 to 18 hours after release). For Erk1/2 and PI3-k inhibition, pre-evaluated concentrations of specific MEK1/2 inhibitor UO126 (15 μM) and PD098059 (15 μM), pI3-k inhibitor LY294002 (15 μM) (Cell Signaling Technology), SOS inhibitor (10 μg) (Upstate Biotechnology, Lake Placid N.Y.) were used. For PKC and lck inhibition, pan-PKC inhibitor bisindolylmaleimide-I (20 nM) and Lck inhibitor PP2 (10 μM) (Calbiochem-Novabiochem Corporation, CA), respectively, were added to the culture medium during synchronization, and cytoplasmic and nuclear extracts were prepared as described above and were immunoblotted with antibodies to various phospho-specific signaling antibodies. None of the inhibitors produced any apoptosis or Schwann cell death under these conditions.

[3] = system: cyclin D1; experiment: Nuclear cyclin D1 immunoblot of synchronized Schwann cells; type: cell-based, human; conditions: added to MEK and Pi3-kinase inhibitors
Protocol: Protein expression intensity was normalized using β-actin expression as an internal control marker and quantified with a densitometer (Alpha Innotech Corporation, San Leandro, Calif.) using the Alpha Imager 2200 v.5.5 software. For preparation of nuclear and cytoplasmic extracts, cells were incubated in a buffer containing 10 mM HEPES pH 7.5, 60 mM KCl, 1 mM EDTA, 0.1% NP-40, 1 mM DTT, 1 mM PMSF and protease inhibitors cocktail for 10 minutes on ice. Lysates were then centrifuged for 10 minutes and the supernatant, which comprised of cytoplasmic extract, was collected. The pellet was re-suspended in a buffer containing 50 mM Tris-HCl pH 7.5, 150 mM NaCl, 1% sodium lauryl sarcosine, 1% NP-40, 0.1% SDS, 1 mM EDTA and protease inhibitors cocktail. After brief sonication, the lysates were centrifuged for 10 minutes and the supernatant, consisting of nuclear extract, was collected. The protein content in both extracts was determined using the BCA method per manufacturer's instructions (Pierce Chemical, Rockford, Ill.).
The cDNA produced was subsequently PCR amplified for 30 cycles using the various specific primers and fluorescent probes in a 384-well GeneAmp PCR system 9700 (Applied Biosystems, Foster City, Calif.). […] The data obtained were analyzed with the ABI PRISM 7900 HT Sequence detection system (Bulletin No. 2, Applied Biosystems). […]

[4] = system: human primary Schwann cells; experiment: Cell cycle FACS analysis (propidium iodide); type: cell-based
Protocol: Human primary Schwann cells, that had been cultured for 15 and 30 days with and without M. leprae were trypsinized and adjusted to equal cell number. For the experiments with kinase inhibitors, synchronized infected and control cells were treated with pre-evaluated concentrations of various inhibitors as described previously elsewhere herein, and with different combinations of inhibitors before being processed for cell cycle FACS (Lemoine and Marriott, 2001, J. Biol. Chem. 276:31851-31857). To assess the effect of Lck inhibitor on heregulin-induced cell cycle progression, synchronized Schwann cells were treated with heregulin for 30 minutes in the presence and absence of Lck inhibitor. Cells were then washed with PBS, fixed with 85% ethanol overnight at […] and suspended in 1 ml PBS containing 1% FBS, RNase A (250 μg/ml; Roche Molecular Biochemicals) and 100 μg/ml Propidium Iodide (Sigma) for 30 minutes at 37° C. Stained cells were washed twice with PBS and subjected to FACS analysis on a Becton Dickinson FACScan cytometer (Ruhl et al., 1999, J. Biol. Chem. 274: 34361-34368). The cell cycle profile was analyzed with CellQuest software (Becton & Dickinson).

[5] = system: Lck/Ser-158; experiment: Phospho-Lck/Ser-158 immunoblot; type: cell-based, human; conditions: PKC inhibitor (10 μM)
Protocol: as §1, with “For PKC and lck inhibition, pan-PKC inhibitor bisindolylmaleimide-I (20 nM) and Lck inhibitor PP2 (10 μM) (Calbiochem-Novabiochem Corporation, CA), respectively, were added to the culture medium during synchronization, and cytoplasmic and nuclear extracts were prepared as described above and were immunoblotted with antibodies to various phospho-specific signaling antibodies.” left out
To examine if the addition of exogenous Heregulin-β1 can induce Lck/Ser-158 phosphorylation, human Schwann cells were serum-starved for 48 hours and then incubated with 10 nM […] for 30 minutes. Subsequently, total protein lysates were prepared and the phosphorylation state of Erk1/2, PKC-alpha-betaII/βII and Lck-Ser158 were examined using phospho-specific antibodies.

[6] = system: PKCα/βII; experiment: Phospho-PKC isoform immunoblot; type: cell-based, human
Protocol: as §1
Although PKC is known to play a role in oligodendrocyte proliferation and differentiation (Bhat et al., 1992, J. Neurosci. Res. 32:340-349; Stariha and Kim, 2001, Microsc. Res. Tech. 52:680-688), much less is known about its function in Schwann cells. […]

CC[C@@]1(O)C(=O)OCc2c1cc1n(c2=O)Cc2cc3ccccc3nc2-1 [Camptothecin]
expression of apoptosis markers caspase 3, caspase 9, PARP [1]: induced the expression of these apoptotic markers | expression of apoptosis markers caspase 3, caspase 9, PARP ([1]; listed as camptothecin): express all three apoptosis markers

O=c1cc(N2CCOCC2)oc2c(-c3ccccc3)cccc12 [LY294002]
phosphorylation of Erk1/2 and GSK-3β in infected Schwann cells in presence of inhibitor [2]: not inhibited

CC(C)(C)n1nc(-c2ccc(Cl)cc2)c2c(N)ncnc21 [PP2]
M. leprae-induced phosphorylation of Erk1/2 in presence of Lck inhibitor ([2]; 10 μM, with MEK1/2 and Pi3K inhibitors, 48 hours): significant reduction | nuclear cyclin D1 in presence of Lck inhibitor ([3]; listed as Lck inhibitor): dramatically reduced | nuclear cyclin D1 in presence of Lck inhibitor ([3]; listed as Lck-inhibitor): significant blockade | net M. leprae-induced S-phase cell population in presence of Lck inhibitor ([4]; added to MEK and Pi3-kinase inhibitors): dramatically reduced | net S-phase population induced by exogenous heregulin-β1 in presence of Lck inhibitor ([4]; listed as Lck inhibitor): did not affect | net S-phase population induced by exogenous heregulin-β1 in presence of Lck inhibitor ([4]; listed as Lck-inhibitor): fails to respond

N#CC(=C(/N)Sc1ccccc1N)/C(C#N)=C(\N)Sc1ccccc1N [U0126]
phosphorylation of Erk1/2 and GSK-3β in infected Schwann cells in presence of inhibitor [2]: not inhibited

CN(C)CCCn1cc(C2=C(c3c[nH]c4ccccc34)C(=O)NC2=O)c2ccccc21 [bisindolylmaleimide-I]
M. leprae-induced Erk1/2 phosphorylation in presence of PKC inhibitor ([2]; with MEK1/2 and Pi3K inhibitors): significantly blocked | M. leprae-induced Erk1/2 phosphorylation in presence of PKC inhibitor ([2]; with MEK1/2 and Pi3K inhibitors, listed as PKC inhibitor): dramatically down-regulated | apoptosis or cell death of treated cells ([2]; bisindolylmaleimide-I 20 nM): no apoptosis or cell death | phosphorylation at Lck/Ser-158 in presence of PKC inhibitor ([5]; listed as PKC inhibitor): completely abolished | phosphorylation at Lck/Ser-158 in presence of PKC inhibitor ([5]; listed as PKCI): abrogated | M. leprae-induced phospho-PKCα/βII in presence of pan-PKC inhibitor [6]: markedly blocked
